This assay addresses phosphorylated active hERK2 enzyme (Homo sapiens (Human), UniProt P28482). The experiment in a line: Active Human ERK2 (hERK2) Activity Assay (IMAP-FP). The settings on record: Table 6, 0.5 nM hERK2, 30 μM ATP, 10 point titration, read-out: AERK2 IC50. It is filed as biochemical. The method, boiled down:
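IMAP fluorescence-polarization kinase assay: 0.5 nM activated hERK2 with 900 nM unlabeled plus 80 nM labeled peptide and 30 μM ATP, reacted 60 min. Quenched with IMAP beads in binding buffer with 24 mM NaCl; FP read after 60 min equilibration.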

Each structure is given as a SMILES string. pIC50: −log10 of the molar value.

Sequence of phosphorylated active hERK2 enzyme (P28482 whole entry): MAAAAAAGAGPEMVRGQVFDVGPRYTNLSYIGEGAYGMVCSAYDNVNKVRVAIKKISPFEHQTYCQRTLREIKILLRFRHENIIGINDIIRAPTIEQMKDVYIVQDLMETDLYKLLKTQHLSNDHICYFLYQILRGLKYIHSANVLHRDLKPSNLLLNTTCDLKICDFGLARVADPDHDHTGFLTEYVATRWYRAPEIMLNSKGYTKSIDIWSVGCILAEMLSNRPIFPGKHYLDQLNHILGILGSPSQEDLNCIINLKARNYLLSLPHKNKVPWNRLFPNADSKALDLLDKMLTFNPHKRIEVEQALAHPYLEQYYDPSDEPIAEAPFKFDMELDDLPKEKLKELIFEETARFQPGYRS

Usually pIC50 stands for the negative decadic logarithm of the IC50, by convention in mol/L. On to `C[C@@H](NC(=O)Nc1cc2[nH]nc(NC3CC(N(C)C)C3)c2cn1)c1ccccc1` (stereo partly drawn) [Example 169, 1-(3-{[3-(dimethylamino)-cyclobutyl]amino}-1H-pyrazolo[4,3-c]pyridin-6-yl)-3-[(1R)-1-phenylethyl]urea], for which the pIC50 was 7.30.
With `COC1CC(CNc2n[nH]c3cc(NC(=O)N[C@H](C)c4ccccc4)ncc23)C1` (stereo partly drawn) [Example 170, 1-(3-{[(3-methoxy-cyclobutyl)methyl]amino}-1H-pyrazolo[4,3-c]-pyridin-6-yl)-3-[(1R)-1-phenylethyl]urea], the pIC50 was 8.57.
With `CC(Nc1n[nH]c2cc(NC(=O)N[C@H](C)c3ccccc3)ncc12)C1CCOCC1` (stereo partly drawn) [Example 171, 1-[(1R)-1-phenylethyl]-3-(3-{[1-(tetrahydro-2H-pyran-4-yl)-ethyl]amino}-1H-pyrazolo[4,3-c]-pyridin-6-yl)urea], the pIC50 is 8.39.
Take `C[C@@H](NC(=O)Nc1cc2[nH]nc(NC3CCC(N(C)C)CC3)c2cn1)c1ccccc1` (stereo partly drawn) [Example 172, 1-(3-{[4-(dimethylamino)-cyclohexyl]amino}-1H-pyrazolo[4,3-c]pyridin-6-yl)-3-[(1R)-1-phenylethyl]urea]: the pIC50 was 7.51.
With `CC1=NOC(CNc2n[nH]c3cc(NC(=O)N[C@H](C)c4ccccc4)ncc23)C1` (stereo partly drawn) [Example 173, 1-(3-{[(3-methyl-4,5-dihydro-isoxazol-5-yl)-methyl]amino}-1H-pyrazolo[4,3-c]-pyridin-6-yl)-3-[(1R)-1-phenylethyl]urea], the pIC50 is 8.24.
Consider `C[C@@H](NC(=O)Nc1cc2[nH]nc(NC3CCCOC3)c2cn1)c1ccccc1` (stereo partly drawn) [Example 174, 1-[(1R)-1-phenylethyl]-3-[3-(tetrahydro-2H-pyran-3-ylamino)-1H-pyrazolo[4,3-c]pyridin-6-yl]urea], for which the pIC50 was 8.36.
With `CC(CN1CCOCC1)Nc1n[nH]c2cc(NC(=O)N[C@H](C)c3ccccc3)ncc12` (stereo partly drawn) [Example 175, 1-{3-[(1-methyl-2-morpholin-4-ylethyl)amino]-1H-pyrazolo[4,3-c]pyridin-6-yl}-3-[(1R)-1-phenylethyl]urea], the pIC50 was 7.47.
With `CC(CC1CCCCN1)Nc1n[nH]c2cc(NC(=O)N[C@H](C)c3ccccc3)ncc12` (stereo partly drawn) [Example 176, 1-{3-[(1-methyl-2-piperidin-2-ylethyl)amino]-1H-pyrazolo[4,3-c]pyridin-6-yl}-3-[(1R)-1-phenylethyl]urea], the negative logarithm of the IC50 (pIC50) was 7.42.
In the case of `C[C@@H](NC(=O)Nc1cc2[nH]nc(NCC3CC(C(C)(C)O)C3)c2cn1)c1ccccc1` (stereo partly drawn) [Example 177, 1-[3-({[3-(1-hydroxy-1-methyl-ethyl)cyclobutyl]-methyl}amino)-1H-pyrazolo[4,3-c]pyridin-6-yl]-3-[(1R)-1-phenylethyl]urea] it was 7.92; in that of `C[C@@H](NC(=O)Nc1cc2[nH]nc(NCc3ccccc3)c2cn1)c1ccccc1` [Example 178, 1-[3-(benzyl-amino)-1H-pyrazolo[4,3-c]-pyridin-6-yl]-3-1-[(1R)-1-phenylethyl]urea], 8.34; in that of `C[C@@H](NC(=O)Nc1cc2[nH]nc(NCc3ccncc3)c2cn1)c1ccccc1` [Example 179, 1-[(1R)-1-phenylethyl]-3-{3-[(pyridin-4-yl-methyl)amino]-1H-pyrazolo[4,3-c]-pyridin-6-yl}urea], 9.00.
For the compound `C=C(C)C1CC(CNc2n[nH]c3cc(NC(=O)N[C@H](C)c4ccccc4)ncc23)C1` (stereo partly drawn) [Example 180, 1-[3-({[3-(1-methylethenyl)-cyclobutyl]methyl}amino)-1H-pyrazolo[4,3-c]-pyridin-6-yl]-3-[(1R)-1-phenylethyl]urea], the pIC50 is 7.75.
As for `C[C@@H](NC(=O)Nc1cc2[nH]nc(NC(=O)C3CCOCC3)c2cn1)c1ccccc1` [Example 181, N-[6-({[(1R)-1-phenylethyl]-carbamoyl}amino)-1H-pyrazolo[4,3-c]pyridin-3-yl]-tetrahydro-2H-pyran-4-carboxamide], the pIC50 is 8.37.
`COC[C@@H](NC(=O)Nc1cc2[nH]nc(NCC3CC(C(C)(C)O)C3)c2cn1)c1ccccc1` (stereo partly drawn) [Example 182, 1-[3-({[3-(1-hydroxy-1-methylethyl)-cyclobutyl]methyl}amino)-1H-pyrazolo[4,3-c]pyridin-6-yl]-3-[(1S)-2-methoxy-1-phenylethyl]urea]: the pIC50 was 8.59.
`COC[C@@H](NC(=O)Nc1cc2[nH]nc(NCC3CC(C(C)(C)O)C3)c2cn1)c1ccccc1` (stereo partly drawn) [Example 183, 1-[3-({[3-(1-hydroxy-1-methylethyl)-cyclobutyl]methyl}amino)-1H-pyrazolo[4,3-c]pyridin-6-yl]-3-[(1S)-2-methoxy-1-phenylethyl]urea]: the pIC50 is 8.44.
For `C[C@@H](NC(=O)Nc1cc2[nH]nc(NC3CCNC3)c2cn1)c1ccccc1` (stereo partly drawn) [Example 184, 1-[(1R)-1-phenylethyl]-3-[3-(pyrrolidin-3-ylamino)-1H-pyrazolo[4,3-c]pyridin-6-yl]urea], the pIC50 is 6.99.
`C[C@@H](NC(=O)Nc1cc2[nH]nc(NC3CCC3)c2cn1)c1ccccc1` [Example 185, 1-[3-(cyclobutylamino)-1H-pyrazolo[4,3-c]pyridin-6-yl]-3-[(1R)-1-phenylethyl]urea]: the pIC50 was 8.82.
As for `C[C@@H](NC(=O)Nc1cc2[nH]nc(NC3CCCC3)c2cn1)c1ccccc1` [Example 186, 1-[3-(cyclopentyl-amino)-1H-pyrazolo[4,3-c]-pyridin-6-yl]-3-[(1R)-1-phenylethyl]urea], the negative-log IC50 (pIC50) is 8.64.
As to `C[C@@H](NC(=O)Nc1cc2[nH]nc(NC3CCCCC3)c2cn1)c1ccccc1` [Example 187, 1-[3-(cyclohexyl-amino)-1H-pyrazolo[4,3-c]pyridin-6-yl]-3-[(1R)-1-phenylethyl]urea], the pIC50 is 8.17.
As for `C[C@@H](NC(=O)Nc1cc2[nH]nc(NC3COC3)c2cn1)c1ccccc1` [Example 188, 1-[3-(oxetan-3-yl-amino)-1H-pyrazolo[4,3-c]pyridin-6-yl]-3-[(1R)-1-phenylethyl]urea], the negative-log IC50 (pIC50) was 6.84.
As to `CC(C)CNc1n[nH]c2cc(NC(=O)N[C@H](C)c3ccccc3)ncc12` [Example 189, 1-{3-[(2-methylpropyl)-amino]-1H-pyrazolo[4,3-c]-pyridin-6-yl}-3-[(1R)-1-phenylethyl]urea], the pIC50 is 8.77.
In the case of `C[C@@H](NC(=O)Nc1cc2[nH]nc(NCc3ccccn3)c2cn1)c1ccccc1` [Example 190, 1-[(1R)-1-phenylethyl]-3-{3-[(pyridin-2-yl-methyl)amino]-1H-pyrazolo[4,3-c]-pyridin-6-yl}urea], the pIC50 is 8.03.
`CC(CC(C)(C)O)Nc1n[nH]c2cc(NC(=O)N[C@H](C)c3ccccc3)ncc12` (stereo partly drawn) [Example 191, 1-{3-[(3-hydroxy-1,3-dimethylbutyl)-amino]-1H-pyrazolo[4,3-c]-pyridin-6-yl}-3-[(1R)-1-phenylethyl]urea]: the pIC50 was 7.19.
`CC(CS(C)(=O)=O)Nc1n[nH]c2cc(NC(=O)N[C@H](C)c3ccccc3)ncc12` (stereo partly drawn) [Example 192, 1-(3-{[1-methyl-2-(methylsulfonyl)-ethyl]amino}-1H-pyrazolo[4,3-c]-pyridin-6-yl)-3-[(1R)-1-phenylethyl]urea]: the pIC50 is 7.10.
As to `C[C@@H](NC(=O)Nc1cc2[nH]nc(NCCN3CCOCC3)c2cn1)c1ccccc1` [Example 194, 1-{3-[(2-morpholin-4-ylethyl)amino]-1H-pyrazolo[4,3-c]-pyridin-6-yl}-3-[(1R)-1-phenylethyl]urea], the pIC50 was 7.55.
In the case of `C[C@@H](NC(=O)Nc1cc2[nH]nc(NC3CCC(F)(F)CC3)c2cn1)c1ccccc1` [Example 195, 1-{3-[(4,4-difluorocyclohexyl)amino]-1H-pyrazolo[4,3-c]-pyridin-6-yl}-3-[(1R)-1-phenylethyl]urea], the pIC50 was 7.99.
As to `C[C@@H](NC(=O)Nc1cc2[nH]nc(NCC3CCCCO3)c2cn1)c1ccccc1` (stereo partly drawn) [Example 196, 1-[(1R)-1-phenylethyl]-3-{3-[(tetrahydro-2H-pyran-2-yl-methyl)amino]-1H-pyrazolo[4,3-c]-pyridin-6-yl}urea], the negative logarithm of the IC50 (pIC50) is 7.55.
Consider `CC(CCl)Nc1n[nH]c2cc(NC(=O)N[C@H](C)c3ccccc3)ncc12` (stereo partly drawn) [Example 197, 1-{3-[(2-chloro-1-methylethyl)amino]-1H-pyrazolo[4,3-c]pyridin-6-yl}-3-[(1R)-1-phenylethyl]urea], for which the pIC50 is 8.51.
In the case of `COC[C@@H](NC(=O)Nc1cc2[nH]nc(NC3COC3)c2cn1)c1ccccc1` [Example 198, 1-[(1S)-2-methoxy-1-phenylethyl]-3-[3-(oxetan-3-yl-amino)-1H-pyrazolo[4,3-c]-pyridin-6-yl]urea], the negative-log IC50 (pIC50) is 9.30.
As for `C[C@@H](NC(=O)Nc1cc2[nH]nc(NC(=O)CC(F)(F)F)c2cn1)c1ccccc1` [Example 199, 3,3,3-trifluoro-N-[6-({[(1R)-1-phenylethyl]-carbamoyl}amino)-1H-pyrazolo[4,3-c]-pyridin-3-yl]-propanamide], the pIC50 was 8.96.
On to `Cc1nnsc1C(=O)Nc1n[nH]c2cc(NC(=O)N[C@H](C)c3ccccc3)ncc12` [Example 200, 4-methyl-N-[6-({[(1R)-1-phenylethyl]-carbamoyl}amino)-1H-pyrazolo[4,3-c]pyridin-3-yl]-1,2,3-thiadiazole-5-carboxamide], for which the pIC50 is 8.96.
In the case of `C[C@@H](NC(=O)Nc1cc2[nH]nc(NC(=O)C3CCC3)c2cn1)c1ccccc1` [Example 201, N-[6-({[(1R)-1-phenylethyl]-carbamoyl}amino)-1H-pyrazolo[4,3-c]pyridin-3-yl]-cyclobutane-carboxamide], the pIC50 is 9.30.
Next, `C[C@@H](NC(=O)Nc1cc2[nH]nc(NC(=O)Cc3ccccc3)c2cn1)c1ccccc1` [Example 202, 2-phenyl-N-[6-({[(1R)-1-phenylethyl]-carbamoyl}amino)-1H-pyrazolo[4,3-c]pyridin-3-yl]-acetamide]: 9.22; `C[C@@H](NC(=O)Nc1cc2[nH]nc(NC(=O)CC3CCCCC3)c2cn1)c1ccccc1` [Example 203, 2-cyclohexyl-N-[6-({[(1R)-1-phenylethyl]-carbamoyl}amino)-1H-pyrazolo[4,3-c]pyridin-3-yl]-acetamide]: 8.44.
